Calls of active or inactive are those of the source. No cut-off for these calls is given here. Residues, ends and D or L forms follow the SMILES beside them. *: point of attachment. Lauroyl = CCCCCCCCCCCC(=O)*
Tests used:
B16-F10 = assay: Cytotoxicity in mouse B16/F10 cells assessed as reduction in cell viability incubated for 24 hrs by CCK8 assay; assay type: functional, cell-based; conditions: B16-F10, 24 h
A549 [1] = assay: Potency index, ratio of IC50 for lycosin-I to IC50 for test compound for cytotoxicity in human A549 cells assessed as reduction in cell viability at 0.78 to 50 uM incubated for 24 hrs by CCK8 assay; assay type: functional
A549 [2] = assay: Cytotoxicity in human A549 cells assessed as reduction in cell viability incubated for 24 hrs by CCK8 assay; assay type: functional, cell-based; conditions: A549, 24 h
HEK-293T = assay: Cytotoxicity in human HEK293T cells assessed as reduction in cell viability incubated for 24 hrs by CCK8 assay; assay type: cell-based; conditions: human, hek-293t
A549 [3] = assay: Cytotoxicity in human A549 cells assessed as reduction in cell viability by trypan blue staining method; assay type: functional, cell-based
Homo sapiens = organism: Homo sapiens; assay: Induction of cell membrane disruption in human erythrocytes cells assessed as induction of hemolysis at 0.098 to 50 uM incubated for 1 hr by fluorescence based assay relative to control; assay type: cell membranes
A549 [4] = assay: Induction of cell membrane disruption in human A549 cells assessed as LDH release at 3.25 uM incubated for 30 mins by fluorescence based assay relative to control

| Compound | IC50 (B16-F10) [nM] | Ratio IC50 (A549 [1]) | IC50 (A549 [2]) [µM] | Activity (HEK-293T) | Activity (A549 [3]) | Activity (Homo sapiens) | Activity (A549 [4]) [%] |
| --- | --- | --- | --- | --- | --- | --- | --- |
| CCCCCCCCCCCC(=O)NCCCC[C@H](N)C(=O)NCC(=O)N[C@@H](Cc1c[nH]c2ccccc12)C(=O)N[C@@H](Cc1ccccc1)C(=O)N[C@@H](CCCCN)C(=O)N[C@@H](C)C(=O)N[C@@H](CCSC)C(=O)N[C@@H](CCCCN)C(=O)N[C@@H](CO)C(=O)N[C@H](C(=O)N[C@@H](C)C(=O)N[C@@H](CCCCN)C(=O)N[C@@H](Cc1ccccc1)C(=O)N[C@H](C(=O)N[C@@H](C)C(=O)N[C@@H](CCCCN)C(=O)N[C@@H](CCC(=O)O)C(=O)N[C@@H](CCCCN)C(=O)N[C@@H](CC(C)C)C(=O)N[C@@H](CCCCN)C(=O)N[C@@H](CCC(=O)O)C(=O)N[C@@H](Cc1cnc[nH]1)C(=O)N[C@@H](CC(C)C)C(=O)O)[C@@H](C)CC)[C@@H](C)CC (H-K(Lauroyl)GWFKAMKSIAKFIAKEKLKEHL-OH) | 2000 | 4 - 15 | 3.1 | Toxic | Active | Active | 51.3 |
| CCCCCCCCCCCC(=O)NCCCC[C@H](NC(=O)[C@H](Cc1ccccc1)NC(=O)[C@H](Cc1c[nH]c2ccccc12)NC(=O)CNC(=O)[C@@H](N)CCCCN)C(=O)N[C@@H](C)C(=O)N[C@@H](CCSC)C(=O)N[C@@H](CCCCN)C(=O)N[C@@H](CO)C(=O)N[C@H](C(=O)N[C@@H](C)C(=O)N[C@@H](CCCCN)C(=O)N[C@@H](Cc1ccccc1)C(=O)N[C@H](C(=O)N[C@@H](C)C(=O)N[C@@H](CCCCN)C(=O)N[C@@H](CCC(=O)O)C(=O)N[C@@H](CCCCN)C(=O)N[C@@H](CC(C)C)C(=O)N[C@@H](CCCCN)C(=O)N[C@@H](CCC(=O)O)C(=O)N[C@@H](Cc1cnc[nH]1)C(=O)N[C@@H](CC(C)C)C(=O)O)[C@@H](C)CC)[C@@H](C)CC (H-KGWFK(Lauroyl)AMKSIAKFIAKEKLKEHL-OH) | 2000 | 4 - 15 | 7.7 | Toxic | Active | Active | 23.1 |
| CCCCCCCCCCCC(=O)NCCCC[C@H](NC(=O)[C@H](CCSC)NC(=O)[C@H](C)NC(=O)[C@H](CCCCN)NC(=O)[C@H](Cc1ccccc1)NC(=O)[C@H](Cc1c[nH]c2ccccc12)NC(=O)CNC(=O)[C@@H](N)CCCCN)C(=O)N[C@@H](CO)C(=O)N[C@H](C(=O)N[C@@H](C)C(=O)N[C@@H](CCCCN)C(=O)N[C@@H](Cc1ccccc1)C(=O)N[C@H](C(=O)N[C@@H](C)C(=O)N[C@@H](CCCCN)C(=O)N[C@@H](CCC(=O)O)C(=O)N[C@@H](CCCCN)C(=O)N[C@@H](CC(C)C)C(=O)N[C@@H](CCCCN)C(=O)N[C@@H](CCC(=O)O)C(=O)N[C@@H](Cc1cnc[nH]1)C(=O)N[C@@H](CC(C)C)C(=O)O)[C@@H](C)CC)[C@@H](C)CC (H-KGWFKAMK(Lauroyl)SIAKFIAKEKLKEHL-OH) | 2000 | 4 - 15 | 7.3 | Toxic | Active | Active | 25.7 |
| CCCCCCCCCCCC(=O)NCCCC[C@H](NC(=O)[C@H](C)NC(=O)[C@@H](NC(=O)[C@H](CO)NC(=O)[C@H](CCCCN)NC(=O)[C@H](CCSC)NC(=O)[C@H](C)NC(=O)[C@H](CCCCN)NC(=O)[C@H](Cc1ccccc1)NC(=O)[C@H](Cc1c[nH]c2ccccc12)NC(=O)CNC(=O)[C@@H](N)CCCCN)[C@@H](C)CC)C(=O)N[C@@H](Cc1ccccc1)C(=O)N[C@H](C(=O)N[C@@H](C)C(=O)N[C@@H](CCCCN)C(=O)N[C@@H](CCC(=O)O)C(=O)N[C@@H](CCCCN)C(=O)N[C@@H](CC(C)C)C(=O)N[C@@H](CCCCN)C(=O)N[C@@H](CCC(=O)O)C(=O)N[C@@H](Cc1cnc[nH]1)C(=O)N[C@@H](CC(C)C)C(=O)O)[C@@H](C)CC (H-KGWFKAMKSIAK(Lauroyl)FIAKEKLKEHL-OH) | 2000 | 4 - 15 | 4.9 | Toxic | Active | Active | 38.5 |
| CCCCCCCCCCCC(=O)NCCCC[C@H](NC(=O)[C@H](C)NC(=O)[C@@H](NC(=O)[C@H](Cc1ccccc1)NC(=O)[C@H](CCCCN)NC(=O)[C@H](C)NC(=O)[C@@H](NC(=O)[C@H](CO)NC(=O)[C@H](CCCCN)NC(=O)[C@H](CCSC)NC(=O)[C@H](C)NC(=O)[C@H](CCCCN)NC(=O)[C@H](Cc1ccccc1)NC(=O)[C@H](Cc1c[nH]c2ccccc12)NC(=O)CNC(=O)[C@@H](N)CCCCN)[C@@H](C)CC)[C@@H](C)CC)C(=O)N[C@@H](CCC(=O)O)C(=O)N[C@@H](CCCCN)C(=O)N[C@@H](CC(C)C)C(=O)N[C@@H](CCCCN)C(=O)N[C@@H](CCC(=O)O)C(=O)N[C@@H](Cc1cnc[nH]1)C(=O)N[C@@H](CC(C)C)C(=O)O (H-KGWFKAMKSIAKFIAK(Lauroyl)EKLKEHL-OH) | 2000 | 4 - 15 | 4.6 | Toxic | Active | Active | 34.6 |
| CCCCCCCCCCCC(=O)NCCCC[C@H](NC(=O)[C@H](CCC(=O)O)NC(=O)[C@H](CCCCN)NC(=O)[C@H](C)NC(=O)[C@@H](NC(=O)[C@H](Cc1ccccc1)NC(=O)[C@H](CCCCN)NC(=O)[C@H](C)NC(=O)[C@@H](NC(=O)[C@H](CO)NC(=O)[C@H](CCCCN)NC(=O)[C@H](CCSC)NC(=O)[C@H](C)NC(=O)[C@H](CCCCN)NC(=O)[C@H](Cc1ccccc1)NC(=O)[C@H](Cc1c[nH]c2ccccc12)NC(=O)CNC(=O)[C@@H](N)CCCCN)[C@@H](C)CC)[C@@H](C)CC)C(=O)N[C@@H](CC(C)C)C(=O)N[C@@H](CCCCN)C(=O)N[C@@H](CCC(=O)O)C(=O)N[C@@H](Cc1cnc[nH]1)C(=O)N[C@@H](CC(C)C)C(=O)O (H-KGWFKAMKSIAKFIAKEK(Lauroyl)LKEHL-OH) | 2000 | 4 - 15 | 5.1 | Toxic | Active | Active | 40.2 |
| CCCCCCCCCCCC(=O)NCCCC[C@H](NC(=O)[C@H](CC(C)C)NC(=O)[C@H](CCCCN)NC(=O)[C@H](CCC(=O)O)NC(=O)[C@H](CCCCN)NC(=O)[C@H](C)NC(=O)[C@@H](NC(=O)[C@H](Cc1ccccc1)NC(=O)[C@H](CCCCN)NC(=O)[C@H](C)NC(=O)[C@@H](NC(=O)[C@H](CO)NC(=O)[C@H](CCCCN)NC(=O)[C@H](CCSC)NC(=O)[C@H](C)NC(=O)[C@H](CCCCN)NC(=O)[C@H](Cc1ccccc1)NC(=O)[C@H](Cc1c[nH]c2ccccc12)NC(=O)CNC(=O)[C@@H](N)CCCCN)[C@@H](C)CC)[C@@H](C)CC)C(=O)N[C@@H](CCC(=O)O)C(=O)N[C@@H](Cc1cnc[nH]1)C(=O)N[C@@H](CC(C)C)C(=O)O (H-KGWFKAMKSIAKFIAKEKLK(Lauroyl)EHL-OH) | 2000 | 4 - 15 | 5 | Toxic | Active | Active | 36.6 |

— ChEMBL document CHEMBL4414655, “Position Effect of Fatty Acid Modification on the Cytotoxicity and Antimetastasis Potential of the Cytotoxic Peptide Lycosin-I” (J Med Chem, 2019)
